This is an account of results in ChEMBL document CHEMBL5338749, “Rapid Elaboration of Fragments into Leads Applied to Bromodomain-3 Extra-Terminal Domain” (J Med Chem, 2023).

Assay [1] has as its target T1, Bromodomain-containing protein 3 (Homo sapiens, UniProt Q15059). The assay is described as follows: Binding affinity to biotinylated BRD3-ET domain (unknown origin) expressed in Escherichia coli Rosetta (DE3) pLysS assessed as dissociation constant at 4 degreeC by SPR analysis.
Target sequence in this assay (Q15059 whole entry, the tested form may be a part): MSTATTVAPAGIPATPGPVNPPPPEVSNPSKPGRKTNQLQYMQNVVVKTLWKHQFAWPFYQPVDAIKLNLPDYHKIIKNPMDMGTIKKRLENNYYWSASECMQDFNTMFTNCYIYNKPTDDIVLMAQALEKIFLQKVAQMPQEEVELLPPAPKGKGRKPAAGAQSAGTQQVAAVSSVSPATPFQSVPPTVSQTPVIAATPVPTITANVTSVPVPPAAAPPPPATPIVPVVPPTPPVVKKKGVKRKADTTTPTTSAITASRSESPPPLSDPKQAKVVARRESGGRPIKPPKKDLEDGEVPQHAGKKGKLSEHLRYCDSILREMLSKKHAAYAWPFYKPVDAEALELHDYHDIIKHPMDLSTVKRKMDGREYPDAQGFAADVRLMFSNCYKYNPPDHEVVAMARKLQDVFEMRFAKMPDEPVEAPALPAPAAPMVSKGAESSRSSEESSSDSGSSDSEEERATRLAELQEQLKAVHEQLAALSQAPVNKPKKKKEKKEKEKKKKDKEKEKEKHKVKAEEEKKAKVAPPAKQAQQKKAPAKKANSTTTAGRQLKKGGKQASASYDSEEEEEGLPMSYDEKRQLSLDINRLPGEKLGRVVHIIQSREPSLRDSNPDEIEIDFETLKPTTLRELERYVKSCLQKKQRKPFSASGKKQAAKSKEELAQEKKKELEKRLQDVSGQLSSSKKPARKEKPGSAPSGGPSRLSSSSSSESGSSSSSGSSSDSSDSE
Assay [2] has as its target T1, Bromodomain-containing protein 3. Nature of the assay: Binding affinity to recombinant BRD3-ET domain (unknown origin) expressed in Escherichia coli Rosetta (DE3) pLysS assessed as dissociation constant by 1H- NMR analysis.
Target sequence in this assay (Q15059 whole entry, the tested form may be a part): as above
Assay [3] has the same target. The assay is described as follows: Binding affinity to biotinylated BRD3-ET domain (unknown origin) expressed in Escherichia coli Rosetta (DE3) pLysS assessed as dissociation off-rate constant at 4 degreeC by SPR analysis.
Target sequence in this assay (Q15059 2-726 limits assumed): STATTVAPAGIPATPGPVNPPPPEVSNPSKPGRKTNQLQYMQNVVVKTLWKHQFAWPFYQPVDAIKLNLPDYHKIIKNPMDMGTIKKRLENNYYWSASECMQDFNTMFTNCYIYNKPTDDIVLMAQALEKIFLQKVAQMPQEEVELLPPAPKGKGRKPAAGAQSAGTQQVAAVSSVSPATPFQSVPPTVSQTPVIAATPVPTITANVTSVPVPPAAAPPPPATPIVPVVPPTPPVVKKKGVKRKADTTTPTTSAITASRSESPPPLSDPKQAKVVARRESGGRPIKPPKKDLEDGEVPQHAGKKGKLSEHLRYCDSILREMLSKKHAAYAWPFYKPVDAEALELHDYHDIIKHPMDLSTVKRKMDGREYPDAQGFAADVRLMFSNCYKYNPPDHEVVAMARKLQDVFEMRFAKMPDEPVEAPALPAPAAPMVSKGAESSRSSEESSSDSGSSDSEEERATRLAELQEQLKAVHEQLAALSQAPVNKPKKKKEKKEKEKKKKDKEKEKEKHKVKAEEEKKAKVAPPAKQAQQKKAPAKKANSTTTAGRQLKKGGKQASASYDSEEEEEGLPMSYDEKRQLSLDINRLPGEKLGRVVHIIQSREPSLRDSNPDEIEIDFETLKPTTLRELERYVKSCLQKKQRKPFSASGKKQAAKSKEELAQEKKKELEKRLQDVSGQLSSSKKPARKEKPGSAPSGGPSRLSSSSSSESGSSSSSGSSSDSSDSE
The target is the same in assay [4]. Nature of the assay: Binding affinity to recombinant BRD3-ET domain (unknown origin) expressed in Escherichia coli Rosetta (DE3) pLysS assessed as dissociation constant by 19F- NMR analysis.
Target sequence in this assay (Q15059 whole entry, the tested form may be a part): as the sequence (Q15059 whole entry, the tested form may be a part) above
Assay [5] shares this target. Nature of the assay: Binding affinity to 15N-labeled recombinant BRD3-ET domain (unknown origin) expressed in Escherichia coli Rosetta (DE3) pLysS assessed as dissociation constant by […] HSQC NMR analysis.
Target sequence in this assay (Q15059 whole entry, the tested form may be a part): as above

pKd: −log10 of the molar value. Where “and” joins values, the source holds several entries; their conditions need not be identical. Equal entries are not always repeated.

For `O=C(CC1CCCNC1)NC1CCCc2c1[nH]c1ccc(F)cc21` (stereo not given), the figures for the pKd in assay [1] and in assay [2] were 4.60 and 4.48, respectively. Regarding `CC(C)C[C@H](N)CC(=O)NC1CCCc2c1[nH]c1ccc(F)cc21` (stereo not given in full) [listing 1 of 3 here], the pKd in assay [1] was 4.96. Turning to `CC(C)C[C@H](N)CC(=O)NC1CCCc2c1[nH]c1ccc(F)cc21` (stereo not given in full) [listing 2 of 3 here], in assay [3], the K was 0.26 s⁻¹ and 0.27 s⁻¹. As for `Fc1ccc2[nH]c3c(c2c1)CCCC3NCC1CCNCC1` (stereo not given) [listing 1 of 3 here], the pKd in assay [4] was 4.66; in assay [2] it was 4.21. Regarding `Fc1ccc2[nH]c3c(c2c1)CCCC3NCC1CCNC1` (stereo not given) [listing 1 of 3 here], the K in assay [3] is 0.22 s⁻¹ and 0.33 s⁻¹. On to `Fc1ccc2[nH]c3c(c2c1)CCCC3NCC1CCNC1` (stereo not given) [listing 2 of 3 here], for which the pKd in assay [4] is 4.17; in assay [2] it was 4.03. As to `Fc1ccc2[nH]c3c(c2c1)CCCC3NCC1CCNCC1` (stereo not given) [listing 2 of 3 here], the K in assay [3] was 0.3 s⁻¹ and 0.49 s⁻¹. With `O=C(NC1CCCc2c1[nH]c1ccc(F)cc21)[C@@H]1C=CCN1` (stereo not given in full) [listing 1 of 3 here], in assay [1], the negative logarithm of the Kd (pKd) was 4.33. For the compound `O=C(NC1CCCc2c1[nH]c1ccc(F)cc21)[C@@H]1C=CCN1` (stereo not given in full) [listing 2 of 3 here], the K in assay [3] was 0.13 s⁻¹ and 0.22 s⁻¹.

For the compound `Fc1ccc2[nH]c3c(c2c1)CCCC3NCC1CCNCC1` (stereo not given) [listing 3 of 3 here], in assay [1], the negative logarithm of the Kd (pKd) is 4.77. As to `OC1CCCc2c1[nH]c1ccccc21` (stereo not given), the negative-log Kd (pKd) in assay [5] was 3.64; in assay [1], 3.42. On to `O=C(NC1CCCc2c1[nH]c1ccc(F)cc21)C1CCNC1` (stereo not given), for which the results for the negative-log Kd (pKd) in assay [1] and in assay [2] were 4.51 and 4.27, respectively. With `CC(C)(C)OC(=O)N1CCC(CNC2CCCc3c2[nH]c2ccc(F)cc32)CC1` (stereo not given), the pKd in assay [5] was 4.51; in assay [1], 4.07.

As for `CC(C)C[C@H](N)CC(=O)NC1CCCc2c1[nH]c1ccc(F)cc21` (stereo not given in full) [listing 3 of 3 here], the pKd in assay [2] was 4.41. `CC(C)(C)OC(=O)N1CCC(CNC2CCCc3c2[nH]c2ccc(F)cc32)C1` (stereo not given): the negative logarithm of the Kd (pKd) in assay [5] is 4.52; in assay [1] it was 4.03. As for `Fc1ccc2[nH]c3c(c2c1)CCCC3NCCC1CCCNC1` (stereo not given) [listing 1 of 3 here], in assay [1], the negative-log Kd (pKd) was 5.11. Take `Fc1ccc2[nH]c3c(c2c1)CCCC3NCC1CCNC1` (stereo not given) [listing 3 of 3 here]: the negative logarithm of the Kd (pKd) in assay [1] was 4.96.

As to `O=C(NC1CCCc2c1[nH]c1ccc(F)cc21)[C@@H]1C=CCN1` (stereo not given in full) [listing 3 of 3 here], the pKd in assay [5] was 4.19. For `Fc1ccc2[nH]c3c(c2c1)CCCC3NCCC1CCCNC1` (stereo not given) [listing 2 of 3 here], in assay [3], the K worked out at 0.28 s⁻¹.

Take `CC(=O)NC1CCCc2c1[nH]c1ccc(F)cc21` (stereo not given): the negative-log Kd (pKd) in assay [5] is 3.82; in assay [1], 3.59. Turning to `Fc1ccc2[nH]c3c(c2c1)CCCC3NCCC1CCCNC1` (stereo not given) [listing 3 of 3 here], the negative-log Kd (pKd) in assay [4] is 4.74; in assay [2], 4.62.

By pKd is commonly meant the negative decadic logarithm of the Kd, by convention in mol/L.
